Source: US10745408B2, “Biologically active taxane analogs and methods of treatment by oral administration” (Tapestry Pharmaceuticals, Inc., priority 2007, dated 2020)
“Also recorded” adds a separate entry of the source. Where two headings read alike, the source gives them in different places.

Key:
[1] = S-(1) pharmacokinetics in mouse, plasma and brain levels after single IV dose; format: in vivo, CD-1 mice; conditions: single IV 20 mg/kg; for AUC(0-inf) / AUC(0-t) / Cmax / MRT: CD-1, mouse
Description: S-(1) Pharmacokinetic Data in Mouse Model:
The formulated drug was administered as a single IV bolus via tail vein injection.
Sample Collection timing: Terminal blood (plasma) and brain specimens were collected at 9 times post-dose, with 4 mice per sample time. Sample collection times: 5, 15 min., 2, 8, 24, 32, 48, 72 and 96 hr post-dose (4 mice per sample time).
Blood collection: A terminal blood sample was collected from each mouse via cardiac puncture. The whole blood was collected on wet ice, spun down immediately (at 4° C.), and plasma stored frozen at −20° C. until analysis. The anticoagulant used was K2EDTA. Brain Sample Collection: Whole brains were removed by dissection. Brains were collected on wet ice, weighed, and stored at −20° C.

[2] = Injection formulation administered IV and orally: mouse PK parameters; format: in vivo; conditions: for half-life: read-out: t ½ (converted)
[3] = Human tumor xenografts in nude mice (efficacy and MTD studies); format: in vivo; conditions: mouse, in vivo, po; nude mice, from efficacy and MTD studies; read-out: apparent oral bioavailability
human tumor xenografts = test: as above; format: in vivo
HT29 = test: MTS proliferation assay, colon HT29; format: cell-based; conditions: Homo sapiens, HT-29
Description: (§1) MTS Proliferation Assay (Promega)
(§2) Day 1: Cells were plated in appropriate growth medium at 5×10^3 per well in 100 ul in 96 well tissue culture plates, Falcon, one for each drug to be tested. Col 1 was blank; it contained no cells, just medium. The plates were incubated overnight at 37° C., 5% CO2 to allow attachment.
(§3) Day 2: Added 120 ul growth medium in wells of 96-well “dilution plates” (one for each drug) and let sit in 37° C. incubator for about 1 hr.
(§4) Thawed DMSO drug stocks (usually at 10 mM). Each drug was diluted 6 ul into a tube with 3 ml growth medium, to 20 μM.
(§5) Aspirated medium from col 12 of a dilution plate; added 200-300 ul of 20 uM drug to wells of col 12. Made serial dilution down this 96-well plate: for a […] dilution pattern, moved 60 ul from col 12 to col 11, mixed 4-5 times (using 8 place multi-pipettor), moved 60 ul to col 10, etc. stopping at col 3.
(§6) Moved 100 ul of medium+drug from dilution plate to a cell plate, i.e. col 1 from drug plate (blank=no cells) to col 1 of cell plate, etc. up to col 12. Col 2 contained cells with no drug. […]
(§7) Day 4 or 5: Terminated the assay 48 to 72 hrs after drug addition. […] When the color turned dark in control wells (col 2), and was still light in col 12, the absorbance at 490 nm was read on a plate reader; the results were used to calculate IC50.

MESSA = test: MTS proliferation assay, uterine MESSA; format: cell-based; conditions: Homo sapiens, MES-SA
Description: as §1, §2, §3, §4, §5, §6, §7

SKNAS = test: MTS proliferation assay, neuroblastoma SKNAS; format: cell-based; conditions: Homo sapiens, SK-N-AS
Description: as §1, §2, §3, §4, §5, §6, §7

[4] = system: U251 human CNS tumor cells (glioblastoma); conditions: for survivors day 100: QD1, 5, 9; for median day of death and median survival time: intravenous, q4d×3
Source text: Tumor Model: Each animal was implanted with one million U251 human CNS tumor cells from an in vitro cell line by ic injection with a 25 gauge needle. The day of tumor implantation (May 24, 2006) was designated as day 0. A sufficient number of mice were implanted so that animals with body weights in a range as narrow as possible were selected for the trial on the day of treatment initiation (day 1 after tumor implantation). Animals were randomly assigned to the treatment groups and individually identified by earmark codes.
A portion of this solution was then diluted with the complete vehicle to achieve the lower dosing concentration of 1.2 mg/mL. […] Temozolomide (Temodar, Schering Corporation) was prepared on each day of injection in Klucel+tween 80 at a concentration of 4 mg/mL. Temozolomide was administered within 5 minutes of formulation on the basis of exact body weight using a volume of 0.2 mL/10 g of body weight.
Data Collection: Animal health surveillance was conducted and mortality data were collected daily. The animals were weighed twice weekly starting with the first day of treatment.
Study Duration: The study was terminated 100 days after tumor implantation. Any animal found moribund or whose body weight dropped below 14 g was euthanized prior to study termination.
Parameters Evaluated: Number of 100-day survivors, median day of death, and the increase in lifespan based on median day of death and expressed as a percentage (% ILS), median survival time and the % ILS based on median survival time.

[5] = Central nervous system (CNS) safety study in rats; format: in vivo, male Sprague Dawley rats
Description: Toxicology. Central Nervous System (CNS) Safety Study in Rats:
This study was conducted at ClinTrials BioResearch (CTBR, Montreal, Quebec, Canada) as a GLP study.
All animals were observed twice daily for signs of ill health or reaction to treatment, except on day of arrival and necropsy. A Functional Observation Battery (FOB) assessment, along with grip strength, hind limb splay and body temperature measurements were performed for all animals once pre-dose and at approximately 15 minutes, 1 hour, 4 hours, 8 hours and 24 hours post-dose. After the last observation, all animals were euthanized without further examination.

[6] = mouse, in vivo, Oral 10 mg/kg, injection formulation

C=C[C@H]1O[C@H]2C[C@H]3OC[C@@]3(OC(C)=O)[C@H]3[C@H](OC(=O)c4ccccc4)[C@]4(C(C)(C)O)CC(OC(=O)[C@H](O)C(CC(C)C)NC(=O)OC(C)(C)C)C(C)=C4[C@H](OC(C)=O)[C@H](O1)[C@]23C (stereo partly drawn) [S-(1)]
AUC(0-inf) ([1]; Brain): 88700 ng·h/mL
AUC(0-t) ([1]; Brain): 65000 ng·h/mL
Cmax ([1]; Brain): 3730 ng/mL
MRT ([1]; Brain): 42.5 h
AUC(0-inf) ([1]; Plasma): 17000 ng·h/mL
AUC(0-t) ([1]; Plasma): 16900 ng·h/mL
Cmax ([1]; Plasma): 1550 ng/mL
MRT ([1]; Plasma): 17.6 h
blood-brain barrier passage ([1]; mouse model): not impeded by the blood-brain barrier
F ([2]; Oral 10 mg/kg vs IV 10 mg/kg): 47%
AUC(0-inf) ([2]; mouse, in vivo, IV 10 mg/kg): 7.74 µM·h
AUC(0-t) ([2]; mouse, in vivo, IV 10 mg/kg): 6.3 µM·h
clearance ([2]; mouse, in vivo, IV 10 mg/kg): 24.8 mL/min/kg
Vd ([2]; mouse, in vivo, IV 10 mg/kg, read-out: Vdss): 13.3 L/kg
half-life ([2]; mouse, in vivo, IV 10 mg/kg): 6.1 h
AUC(0-inf) [2, 6]: 3.61 µM·h
AUC(0-t) [2, 6]: 3.43 µM·h
Cmax [2, 6]: 460 nM
Tmax [2, 6]: 6 h
half-life [2, 6]: 5.1 h
bioavailability [3]: 40 to 80%
efficacy in mouse xenografts (human tumor xenografts; dosed either oral or iv): shows efficacy
antitumor activity against multiple human tumor xenografts (human tumor xenografts; including xenografts that expressed mdr-1 and were resistant to other taxanes): demonstrated antitumor activity; also recorded: suppressed the growth
IC50 (HT29): 0.006 nM
IC50 (MESSA): 2.9 nM
IC50 (SKNAS): 11 nM
survivors day 100 ([4]; S-(1) 12 mg/kg): 100 = 0)
median day of death and median survival time ([4]; S-(1) 12 mg/kg/dose): 14.5 days
survivors day 100 ([4]; S-(1) 20 mg/kg): 100 = 0)
median day of death and median survival time ([4]; S-(1) 20 mg/kg/dose): 16 days
effect against the U251 human CNS tumor cells (in words) ([4]; monotherapy or combination as dosed in the study): moderate effect
deaths or treatment-related clinical signs ([5]; single intravenous 6.25, 12.5 or 25 mg/kg): no deaths or treatment-related clinical signs
biological effect on central nervous system (FOB, grip strength, hind limb splay, body temperature) ([5]; single intravenous 6.25, 12.5 or 25 mg/kg, 15 minutes, 1, 4, 8 and 24 hours post-dose): no biological effects
no adverse effect level ([5]; single intravenous injection): 25 mg/kg
